Entries after “also recorded” stand apart in the source; their conditions may differ.
Legend:
rat µ receptor [1] = conditions: cited from earlier work
[2] = target: human µ receptor wild‐type (WT) (Homo sapiens, UniProt P35372); experiment: cell-based; format: cell-based
rat µ receptor [3] = conditions: cited from earlier work; remark: listed apart in the source
[4] = tapentadol‐related fatality; cited from earlier work
human µ receptor N40D = human µ receptor N40D (Homo sapiens, UniProt P35372, N40D); experiment: cell-based; format: cell-based
human µ receptor N40D, sequence (P35372 whole entry N40D): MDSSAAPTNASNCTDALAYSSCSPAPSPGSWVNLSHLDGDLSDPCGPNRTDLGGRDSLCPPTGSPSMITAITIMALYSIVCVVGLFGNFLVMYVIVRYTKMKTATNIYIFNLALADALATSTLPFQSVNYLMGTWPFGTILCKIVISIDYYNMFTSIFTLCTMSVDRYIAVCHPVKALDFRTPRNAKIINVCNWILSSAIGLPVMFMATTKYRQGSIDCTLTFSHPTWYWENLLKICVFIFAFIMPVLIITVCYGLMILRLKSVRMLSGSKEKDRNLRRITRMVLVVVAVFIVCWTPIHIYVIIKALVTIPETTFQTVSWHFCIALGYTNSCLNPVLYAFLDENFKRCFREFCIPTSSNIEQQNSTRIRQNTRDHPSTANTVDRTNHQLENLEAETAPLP

human µ receptor A6V = human µ receptor A6V (Homo sapiens, UniProt P35372, A6V); experiment: cell-based; format: cell-based
human µ receptor A6V, sequence (P35372 whole entry A6V): as the sequence (P35372 whole entry N40D) above, with A6V, D40N counted along it

Somatostatin receptors = format: cell-based, Mouse; conditions: 30 µM tapentadol; SRIF 100 nM; AtT20 WT cells
human µ receptor = conditions: GTPγS binding; cited from earlier work
GIRK1/2 channel = target: T1, GIRK1/2 channel (Mus musculus, UniProt P48542+P63250); format: cell-based; conditions: 30 µM tapentadol, AtT20 WT cells
T1 sequence (P63250 1-501): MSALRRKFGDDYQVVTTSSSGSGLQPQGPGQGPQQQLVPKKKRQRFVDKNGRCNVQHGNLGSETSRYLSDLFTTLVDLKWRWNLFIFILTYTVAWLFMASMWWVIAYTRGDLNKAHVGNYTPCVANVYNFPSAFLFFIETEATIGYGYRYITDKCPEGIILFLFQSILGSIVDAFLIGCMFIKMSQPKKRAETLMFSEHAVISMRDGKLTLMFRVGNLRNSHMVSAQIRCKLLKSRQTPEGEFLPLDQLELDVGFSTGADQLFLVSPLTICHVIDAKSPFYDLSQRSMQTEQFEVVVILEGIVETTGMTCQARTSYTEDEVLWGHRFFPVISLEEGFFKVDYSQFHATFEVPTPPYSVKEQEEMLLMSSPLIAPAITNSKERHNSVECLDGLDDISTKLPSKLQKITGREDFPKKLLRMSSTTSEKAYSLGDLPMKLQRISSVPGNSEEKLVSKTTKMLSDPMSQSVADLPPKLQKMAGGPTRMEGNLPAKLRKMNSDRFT
T1 sequence (P48542 1-425): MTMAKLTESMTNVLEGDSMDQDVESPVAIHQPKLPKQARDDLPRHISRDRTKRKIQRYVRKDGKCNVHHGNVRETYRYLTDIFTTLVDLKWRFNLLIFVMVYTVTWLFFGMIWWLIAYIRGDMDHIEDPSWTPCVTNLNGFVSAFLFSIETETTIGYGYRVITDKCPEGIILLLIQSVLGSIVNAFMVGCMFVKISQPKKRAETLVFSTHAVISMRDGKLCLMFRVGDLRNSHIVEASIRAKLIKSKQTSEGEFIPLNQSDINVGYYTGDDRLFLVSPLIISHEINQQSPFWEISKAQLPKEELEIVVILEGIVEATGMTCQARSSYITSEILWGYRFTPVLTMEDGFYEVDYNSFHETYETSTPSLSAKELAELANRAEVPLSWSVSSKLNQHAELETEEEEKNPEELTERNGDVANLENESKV

OPRM1 knock‐out mice = conditions: dose highly effective in wild‐type mouse; cited from earlier work
GIRK channels = conditions: 100 µM; cells clamped at −60 mV; cited from earlier work
[5] = test system: noradrenaline transporter; conditions: read-out: EC50 to inhibit noradrenaline transporter; LC neurons; cited from earlier work

human µ receptor wild‐type (WT), sequence (P35372 whole entry): as the sequence (P35372 whole entry N40D) above, with D40N counted along it

SMILES	Operational tau (rat µ receptor [1])	effect to activate the GIRK channel in variants compared to WT [2]	Operational tau [2]	intrinsic activity (rat µ receptor [3]; GIRK currents, rat LC neurons)	EC50 (rat µ receptor [3]; read-out: EC50 to activate µ receptor, LC neurons) [µM]	serum concentration [4] [µM]	Kd (human µ receptor N40D) [µM]	Relative tau (intrinsic efficacy relative to DAMGO) (human µ receptor N40D; N40D, AtT20 cells, operational model, β‐CNA 100 nM 20 min, mean ± SEM)	Kd (human µ receptor A6V) [µM]	Relative tau (intrinsic efficacy relative to DAMGO) (human µ receptor A6V; A6V, AtT20 cells, operational model, β‐CNA 100 nM 20 min, mean ± SEM)	effect on response of SRIF (Somatostatin receptors)	in vitro efficacy (human µ receptor)	effect on response of ML297 (GIRK1/2 channel)	response at the highest concentration compared with plateau ([2]; 30 µM, undepleted conditions)	Relative tau (intrinsic efficacy relative to DAMGO) ([2]; WT, AtT20 cells, operational model, β‐CNA 100 nM 20 min, mean ± SEM)	Kd ([2]; pKA, WT, operational (functional) affinity) [µM]	analgesic effect (OPRM1 knock‐out mice)	blockage of GIRK channels (GIRK channels)	EC50 [5] [µM]
C[C@@H](NC(=O)[C@@H](N)Cc1ccc(O)cc1)C(=O)NCC(=O)N(C)[C@@H](Cc1ccccc1)C(=O)NCCO [DAMGO, Tyr‐D‐Ala‐Gly‐N‐MePhe‐Gly‐ol acetate]	28.5 ± 1.1	not different	–	–	–	–	–	–	–	–	–	–	–	–	–	–	–	–	–
COc1ccc2c3c1O[C@H]1C(=O)CC[C@@]4(O)[C@@H](C2)N(C)CC[C@]314 [Oxycodone]	5.1 ± 0.2	–	13.9 ± 2	–	–	–	–	–	–	–	–	–	–	–	–	–	–	–	–
CC[C@@H](c1cccc(O)c1)[C@@H](C)CN(C)C [Tapentadol]	–	–	–	lower intrinsic activity than morphine and oxycodone	1.8	3.5 to 25	3.98	0.05 ± 0.02	4.47	0.04 ± 0.01	significant reduction; also recorded: decreased the maximal response	same efficacy as morphine	significant reduction; also recorded: decreased the maximal response	smaller response	0.05 ± 0.01	3.98	reduced yet significant analgesia	no blockage of GIRK channels	2.3
